In the supplement of paper PMC10132981, “Formate overflow drives toxic folate trapping in MTHFD1 inhibited cancer cells” (Nature Metabolism, 2023):

Assays:
SW620 [1] = assay: cell viability relative to vehicle (resazurin, 96 h); higher = more viable
Procedure: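 SW620 WT or MTHFD2-/- cells were treated for 96 h with a compound dilution series (log10 M) in RPMI with normal or dialysed FBS. Viability was read by resazurin and is given as % of vehicle.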

HCT116 = assay: EC50 for viability (resazurin, 96 h); conditions: RPMI+GlutaMAX (10% FBS, 1% P/S)
PA-TU-8988T = assay: EC50 for viability (resazurin, 96 h); conditions: DMEM+GlutaMAX (5% dFBS, 1% P/S)
SW620 [2] = assay: EC50 for viability (resazurin, 96 h)
SW620 MTHFD2-/- = assay: EC50 for viability (resazurin, 96 h); conditions: RPMI+GlutaMAX (5% dFBS, 1% P/S)
SW620 MTHFD2 -/- = assay: EC50 for viability (resazurin, 96 h); conditions: RPMI+GlutaMAX (5% dFBS, 1% P/S)
SW620 WT = assay: EC50 for viability (resazurin, 96 h); conditions: RPMI+GlutaMAX (5% dFBS, 1% P/S)

CN(Cc1cnc2nc(N)nc(N)c2n1)c1ccc(C(=O)N[C@@H](CCC(=O)O)C(=O)O)cc1 [methotrexate]
Conditions | EC50 for viability [nM] | cell viability [%]
SW620 [1], log10 compound concentration (M): -8.33985, supplement / serum: Hypoxanthine, base medium: RPMI + dialysed FBS | – | 99.3
SW620 [1], log10 compound concentration (M): -8.33985, supplement / serum: RPMI + Dialyzed FBS + 50μM Hypoxanthine, base medium: RPMI-1640 | – | 99.18
SW620 [1], log10 compound concentration (M): -8.33985, supplement / serum: RPMI + Dialyzed FBS, base medium: RPMI-1640 | – | 72.4
SW620 [1], log10 compound concentration (M): -8.33985, supplement / serum: RPMI + Normal FBS, base medium: RPMI-1640 | – | 95.4
SW620 [1], log10 compound concentration (M): -8.33985, supplement / serum: Vehicle, base medium: RPMI + dialysed FBS | – | 109
SW620 [1], log10 compound concentration (M): -8.81697, supplement / serum: Hypoxanthine + AICAr 10μM, base medium: RPMI + dialysed FBS | – | 117
SW620 [1], log10 compound concentration (M): -8.81697, supplement / serum: Hypoxanthine + AICAr 30μM, base medium: RPMI + dialysed FBS | – | 98.4
SW620 [1], log10 compound concentration (M): -8.81697, supplement / serum: Hypoxanthine + AICAr 50μM, base medium: RPMI + dialysed FBS | – | 108
SW620 [1], log10 compound concentration (M): -8.81697, supplement / serum: Hypoxanthine + AICAr 100μM, base medium: RPMI + dialysed FBS | – | 90.3
SW620 [1], log10 compound concentration (M): -8.81697, supplement / serum: Hypoxanthine, base medium: RPMI + dialysed FBS | – | 100
SW620 [1], log10 compound concentration (M): -8.81697, supplement / serum: RPMI + Dialyzed FBS + 50μM Hypoxanthine, base medium: RPMI-1640 | – | 102
SW620 [1], log10 compound concentration (M): -8.81697, supplement / serum: RPMI + Dialyzed FBS, base medium: RPMI-1640 | – | 86.4
SW620 [1], log10 compound concentration (M): -8.81697, supplement / serum: RPMI + Normal FBS, base medium: RPMI-1640 | – | 97.4
SW620 [1], log10 compound concentration (M): -8.81697, supplement / serum: Vehicle, base medium: RPMI + dialysed FBS | – | 119
SW620 [1], log10 compound concentration (M): -9.29409, supplement / serum: 50 μM Hypoxanthine + 50 μM Thymidine, base medium: RPMI + dialysed FBS | – | 93.5
SW620 [1], log10 compound concentration (M): -9.29409, supplement / serum: Hypoxanthine + AICAr 10μM, base medium: RPMI + dialysed FBS | – | 118
SW620 [1], log10 compound concentration (M): -9.29409, supplement / serum: Hypoxanthine + AICAr 30μM, base medium: RPMI + dialysed FBS | – | 105
SW620 [1], log10 compound concentration (M): -9.29409, supplement / serum: Hypoxanthine + AICAr 50μM, base medium: RPMI + dialysed FBS | – | 113
SW620 [1], log10 compound concentration (M): -9.29409, supplement / serum: Hypoxanthine + AICAr 100μM, base medium: RPMI + dialysed FBS | – | 102
SW620 [1], log10 compound concentration (M): -9.29409, supplement / serum: Hypoxanthine, base medium: RPMI + dialysed FBS | – | 97.3
SW620 [1], log10 compound concentration (M): -9.29409, supplement / serum: RPMI + Dialyzed FBS + 50μM Hypoxanthine, base medium: RPMI-1640 | – | 96.1
SW620 [1], log10 compound concentration (M): -9.29409, supplement / serum: RPMI + Dialyzed FBS, base medium: RPMI-1640 | – | 98.9
SW620 [1], log10 compound concentration (M): -9.29409, supplement / serum: RPMI + Normal FBS, base medium: RPMI-1640 | – | 99.1
SW620 [1], log10 compound concentration (M): -9.29409, supplement / serum: Vehicle, base medium: RPMI + dialysed FBS | – | 112
SW620 [1], log10 compound concentration (M): -9.77121, supplement / serum: Hypoxanthine + AICAr 10μM, base medium: RPMI + dialysed FBS | – | 112.06
SW620 [1], log10 compound concentration (M): -9.77121, supplement / serum: Hypoxanthine + AICAr 30μM, base medium: RPMI + dialysed FBS | – | 94.8
SW620 [1], log10 compound concentration (M): -9.77121, supplement / serum: Hypoxanthine + AICAr 50μM, base medium: RPMI + dialysed FBS | – | 120.1
SW620 [1], log10 compound concentration (M): -9.77121, supplement / serum: Hypoxanthine + AICAr 100μM, base medium: RPMI + dialysed FBS | – | 98.9
SW620 [1], log10 compound concentration (M): -9.77121, supplement / serum: Hypoxanthine, base medium: RPMI + dialysed FBS | – | 101
SW620 [1], log10 compound concentration (M): -9.77121, supplement / serum: RPMI + Dialyzed FBS + 50μM Hypoxanthine, base medium: RPMI-1640 | – | 94.8
SW620 [1], log10 compound concentration (M): -9.77121, supplement / serum: RPMI + Dialyzed FBS, base medium: RPMI-1640 | – | 96.3
SW620 [1], log10 compound concentration (M): -9.77121, supplement / serum: RPMI + Normal FBS, base medium: RPMI-1640 | – | 88.1
SW620 [1], log10 compound concentration (M): -9.77121, supplement / serum: Vehicle, base medium: RPMI + dialysed FBS | – | 114
SW620 [2], HPLM (5% dFBS, 1% P/S), metabolite supplement: Vehicle | 27 | –
SW620 [2], RPMI+GlutaMAX (5% dFBS, 1% P/S), metabolite supplement: 50 µM Hypoxanthine | 21.8 | –
SW620 [2], RPMI+GlutaMAX (5% dFBS, 1% P/S), metabolite supplement: Vehicle | 8.7 | –
SW620 [2], RPMI+GlutaMAX (10% FBS, 1% P/S), metabolite supplement: Folic acid | 96.3 | –
SW620 [2], RPMI+GlutaMAX (10% FBS, 1% P/S), metabolite supplement: Folinic acid | 366 | –
SW620 [2], RPMI+GlutaMAX (10% FBS, 1% P/S), metabolite supplement: Hypoxanthine | 26.2 | –
SW620 [2], RPMI+GlutaMAX (10% FBS, 1% P/S), metabolite supplement: Thymidine | 12.4 | –
SW620 [2], RPMI+GlutaMAX (10% FBS, 1% P/S), metabolite supplement: Thymidine + Folic acid | 81.8 | –
SW620 [2], RPMI+GlutaMAX (10% FBS, 1% P/S), metabolite supplement: Thymidine + Folinic acid | 388 | –
SW620 [2], RPMI+GlutaMAX (10% FBS, 1% P/S), metabolite supplement: Vehicle | 11.6 | –

Conditions | EC50 for viability [nM]
HCT116, metabolite supplement: Hypoxanthine | 20.3
HCT116, metabolite supplement: Thymidine | 12.6
PA-TU-8988T, metabolite supplement: Hypoxanthine | 237
PA-TU-8988T, metabolite supplement: Sodium Formate | 85.5
PA-TU-8988T, metabolite supplement: Thymidine | 50
SW620 MTHFD2 -/-, metabolite supplement: Hypoxanthine | 16.7
SW620 MTHFD2 -/-, metabolite supplement: Sodium Formate | 10.6
SW620 MTHFD2 -/-, metabolite supplement: Thymidine | 2.67
SW620 MTHFD2 -/-, metabolite supplement: Thymidine + Sodium Formate | 9.38
SW620 MTHFD2 -/-, metabolite supplement: Vehicle | 2.33
SW620 MTHFD2-/-, metabolite supplement: Formate | 2.14
SW620 MTHFD2-/-, metabolite supplement: Hypoxanthine | 12
SW620 MTHFD2-/-, metabolite supplement: Hypoxanthine + Formate | 12.9
SW620 WT, metabolite supplement: Adenine | 31
SW620 WT, metabolite supplement: Adenosine | 34.5
SW620 WT, metabolite supplement: Guanosine | 19.8
SW620 WT, metabolite supplement: Hypoxanthine | 21.1
SW620 WT, metabolite supplement: Hypoxanthine + AICAr 10 µM | 18.1
SW620 WT, metabolite supplement: Hypoxanthine + AICAr 30 µM | 21.9
SW620 WT, metabolite supplement: Hypoxanthine + AICAr 50 µM | 14.2
SW620 WT, metabolite supplement: Hypoxanthine + AICAr 100 µM | 11.3
SW620 WT, metabolite supplement: Sodium Formate | 6.74
SW620 WT, metabolite supplement: Thymidine | 8.47
SW620 WT, metabolite supplement: Thymidine + Sodium Formate | 6.79
SW620 WT, metabolite supplement: Vehicle | 6.53
